Test: IV and oral PK profile in mice – LC-MS, in vivo study for V1a-R antagonist project, late-stage follow-up (AID 743028)
Settings: C57Bl6 mouse plasma PK; for Cmax: peak plasma concentration; for AUC last: plasma exposure; for Tmax: time to peak

half-life (IV dosing 1 mg/kg): 133 min | MRT inf (IV dosing 1 mg/kg, mean residence time): 99 min | Cmax (IV dosing 1 mg/kg): 19.5 µM | clearance (IV dosing 1 mg/kg, plasma clearance): 2.9 mL/min/kg | AUC last (IV dosing 1 mg/kg): 628 µM·min | Tmax (IV dosing 1 mg/kg): 4.8 min | Vss (IV dosing 1 mg/kg, volume of distribution): 0.26 L/kg | half-life (PO dosing 10 mg/kg): 173 min | bioavailability (PO dosing 10 mg/kg, oral bioavailability): 6.54% | Cmax (PO dosing 10 mg/kg): 3.08 µM | apparent oral clearance (CL/F) (PO dosing 10 mg/kg, plasma clearance): 35.1 mL/min/kg | AUC last (PO dosing 10 mg/kg): 628 µM·min | Tmax (PO dosing 10 mg/kg): 40 min
Structure (SMILES): O=C(C1CCN(c2ccc(Cl)cn2)CC1)N(CC1CC1)c1ccc(Cl)cc1
